Legend:
Test in all cases: relative viability (nuclei count vs DMSO), 5 days (fraction); higher = more cells survive
Alpelisib + Bortezomib = compound: Cc1nc(NC(=O)N2CCC[C@H]2C(N)=O)sc1-c1ccnc(C(C)(C)C(F)(F)F)c1 [Alpelisib] + CC(C)C[C@H](NC(=O)[C@H](Cc1ccccc1)NC(=O)c1cnccn1)B(O)O [Bortezomib] (partner 0.002 µM)
Summary of the method: (§1)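 Dosing by pin tool came one day after lung cancer cell lines were seeded in 1536-well plates, using either one drug or a fixed anchor-drug dose plus five library-drug doses (not always all listed) in √10 steps. After 5 days, nuclei were counted on 4× images. Relative viability is treated-well nuclei count divided by vehicle-well nuclei count, and values are medians of duplicate plates.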

Vemurafenib + Bortezomib = compound: CCCS(=O)(=O)Nc1ccc(F)c(C(=O)c2c[nH]c3ncc(-c4ccc(Cl)cc4)cc23)c1F [Vemurafenib] + CC(C)C[C@H](NC(=O)[C@H](Cc1ccccc1)NC(=O)c1cnccn1)B(O)O [Bortezomib] (partner 0.002 µM)
Summary of the method: as §1

Vemurafenib + Tozasertib = compound: CCCS(=O)(=O)Nc1ccc(F)c(C(=O)c2c[nH]c3ncc(-c4ccc(Cl)cc4)cc23)c1F [Vemurafenib] + Cc1cc(Nc2cc(N3CCN(C)CC3)nc(Sc3ccc(NC(=O)C4CC4)cc3)n2)n[nH]1 [Tozasertib] (partner 0.1 µM)
Summary of the method: as §1

OSI-027 + Tozasertib = compound: COc1cccc2cc(-c3nc([C@H]4CC[C@H](C(=O)O)CC4)n4ncnc(N)c34)[nH]c12 [OSI-027] + Cc1cc(Nc2cc(N3CCN(C)CC3)nc(Sc3ccc(NC(=O)C4CC4)cc3)n2)n[nH]1 [Tozasertib] (partner 0.1 µM)
Summary of the method: as §1

Row | Cell Line | relative viability (Alpelisib + Bortezomib; first compound 0.04 µM) | relative viability (Alpelisib + Bortezomib; first compound 0.1265 µM) | relative viability (Alpelisib + Bortezomib; first compound 0.4 µM) | relative viability (Alpelisib + Bortezomib; first compound 1.265 µM) | relative viability (Alpelisib + Bortezomib; first compound 4 µM) | relative viability (Vemurafenib + Bortezomib; first compound 0.03162 µM) | relative viability (Vemurafenib + Bortezomib; first compound 0.1 µM) | relative viability (Vemurafenib + Bortezomib; first compound 0.3162 µM) | relative viability (Vemurafenib + Bortezomib; first compound 1 µM) | relative viability (Vemurafenib + Tozasertib; first compound 0.03162 µM) | relative viability (Vemurafenib + Tozasertib; first compound 0.1 µM) | relative viability (Vemurafenib + Tozasertib; first compound 0.3162 µM) | relative viability (Vemurafenib + Tozasertib; first compound 1 µM) | relative viability (OSI-027 + Tozasertib; first compound 0.01 µM) | relative viability (OSI-027 + Tozasertib; first compound 0.03162 µM) | relative viability (OSI-027 + Tozasertib; first compound 0.1 µM) | relative viability (OSI-027 + Tozasertib; first compound 0.3162 µM) | relative viability (OSI-027 + Tozasertib; first compound 1 µM)
1 | NCI-H1915 | 0.991 | 1.04 | 0.947 | 0.887 | 0.805 | 0.894 | 0.995 | 0.886 | 0.91 | 0.436 | 0.439 | 0.411 | 0.342 | 0.488 | 0.445 | 0.525 | 0.475 | 0.404
2 | NCI-H1975 | 0.419 | 0.318 | 0.355 | 0.238 | 0.189 | 0.361 | 0.313 | 0.24 | 0.385 | 0.688 | 0.635 | 0.45 | 0.238 | 1 | 0.778 | 0.746 | 0.66 | 0.478
3 | NCI-H1993 | 1.09 | 1.03 | 1.02 | 0.791 | 0.489 | 1.02 |  | 1.25 | 1.03 | 0.473 |  | 0.569 | 0.571 | 0.574 | 0.56 | 0.546 | 0.49 | 0.456
4 | NCI-H2009 | 1.03 | 0.982 | 1.24 | 0.89 | 0.859 | 0.944 | 0.922 | 0.583 | 0.778 | 0.698 | 0.644 | 0.625 | 0.648 | 0.759 | 0.621 | 0.717 | 0.755 | 0.444
5 | NCI-H2023 | 0.926 | 0.952 | 0.942 | 0.57 | 0.601 | 0.869 | 0.948 | 0.859 | 0.943 | 0.335 | 0.241 | 0.273 | 0.18 | 0.424 | 0.319 | 0.352 | 0.348 | 0.244
6 | NCI-H2085 | 0.982 | 1.08 | 0.816 | 0.927 | 0.842 | 1.05 | 0.91 | 0.914 | 0.847 | 0.754 | 0.727 | 0.802 | 0.508 | 0.785 | 0.654 | 0.741 | 0.784 | 0.568
7 | NCI-H2087 | 0.651 | 0.78 | 0.893 | 0.685 | 0.47 | 0.759 | 0.701 |  | 0.753 | 0.249 | 0.236 |  | 0.132 | 0.228 | 0.254 | 0.257 | 0.234 | 0.188
8 | NCI-H2126 | 1.06 | 1.06 | 1.03 | 0.974 | 0.81 | 1.07 | 1.07 | 1.09 | 1.14 | 0.812 | 0.786 |  | 0.809 | 0.811 | 0.848 | 0.725 | 0.745 | 0.538
9 | NCI-H2228 | 0.933 | 0.807 | 0.922 | 0.696 | 0.537 | 1.03 | 1 | 1.24 | 1.15 | 0.228 | 0.234 | 0.244 | 0.21 | 0.246 | 0.242 | 0.242 | 0.207 | 0.16
10 | NCI-H2347 | 0.784 | 0.849 | 1.12 | 1.08 | 0.876 | 0.737 | 0.79 | 0.712 | 1.02 | 0.452 | 0.53 | 0.507 | 0.482 | 0.362 | 0.467 | 0.58 | 0.564 | 0.317
11 | NCI-H2405 | 0.997 | 0.835 | 0.927 | 0.83 | 0.696 | 0.925 | 0.995 |  | 0.829 | 0.756 | 0.708 |  | 0.717 | 0.754 | 0.715 | 0.76 | 0.79 | 0.467
12 | NCI-H3122 | 0.992 | 1.08 | 0.984 | 1.12 | 0.999 | 0.989 | 1.01 | 1.04 | 1.07 | 0.398 | 0.335 | 0.371 | 0.365 | 0.542 | 0.38 | 0.385 | 0.434 | 0.287
13 | PC-3 [JPC-3] | 0.873 | 0.901 | 0.766 | 0.768 | 0.66 | 0.81 |  | 0.804 | 0.887 | 0.853 |  | 0.904 | 0.881 | 1.03 | 0.808 | 0.844 | 0.841 | 0.351
14 | PC-14 | 0.801 | 0.882 | 1.16 | 0.773 | 0.747 | 0.728 |  | 0.88 | 0.777 | 0.557 |  | 0.376 | 0.551 | 0.564 | 0.577 | 0.598 | 0.636 | 0.505
15 | RERF-LC-KJ | 1.1 | 1.08 | 1.32 | 1.01 | 0.934 | 1.04 | 1.06 | 1.06 | 1.19 | 0.486 | 0.487 | 0.415 | 0.397 | 0.453 | 0.531 | 0.477 | 0.468 | 0.385
16 | SK-LU-1 | 1.36 | 0.723 | 1.01 | 0.805 | 0.934 | 0.86 | 1.05 |  | 1.14 | 0.255 | 0.283 | 0.294 | 0.298 | 0.295 | 0.331 | 0.303 | 0.248 | 0.241
17 | SW 1573 | 0.898 | 0.947 | 1 | 0.72 | 0.651 | 0.896 | 0.945 | 1.03 | 1.07 | 0.162 | 0.192 | 0.193 | 0.26 | 0.186 | 0.197 | 0.206 | 0.142 | 0.178

Source: the supplement of paper PMC10307832
